# Experimental data from patent publication US9404933B2, “Methods for determining patient response to anti-platelet aggregation therapy” (INVITROX, INC., priority 2011, dated 2016).
# Like-named read-outs stand apart in the source and are kept apart here.
# Assays:
# [1] = tested on: ADP-induced platelet aggregation; details: cited from earlier work; for inhibition of platelet aggregation: patients with ischaemic heart disease, measured at 4 min after addition of 10 μM ADP
# [2] = tested on: human platelets; test: Focused light scattering size distribution of platelets and microparticles after activation; type: cell-based; details: normal resting human platelets versus activated; FIG. 8 / FIG. 9
# Source text: FIG. 8 is a chart showing the result of the activation of platelets using thrombin receptor activating peptide (TRAP), where platelets are enlarged when activated, and also give off microparticles (MPs).
# FIG. 9 is a chart showing the result of the activation of platelets using a calcium ionophore, which destroys platelets, and also causes the platelets to give off microparticles (MPs). Treated and untreated platelet size distributions are shown. What is observed is as the number of platelets decreases, the number of MPs increases.
# The ionophore basically destroys the platelet to produce many more MPs. Treated and untreated platelet size distributions are shown. What is observed is as the number of platelets decreases, the number of MPs increases.
# [3] = in vivo; cited from earlier work
# [4] = tested on: P2Y12-dependent platelet function; details: added in vitro to blood from clopidogrel treated patients; cited from earlier work
smiles,measurement,setting,value
"COC(=O)[C@H](c1ccccc1Cl)N1CCc2sccc2C1 [Plavix, clopidogrel bisulfate]",delayed onset of action,[1]; loading dose of 300-600 mg,two to five
same,inhibition of platelet aggregation,[1]; 4 to 7 days treatment,approximately 60%
"CC(=O)Oc1cc2c(s1)CCN(C(C(=O)C1CC1)c1ccccc1F)C2 (stereo not drawn) [Prasugrel, 2-acetoxy-5-[alpha-cyclopropylcarbonyl-2-fluorobenzyl]-4,5,6,7-tetrahydrothieno[3,2-c]pyridine]",inhibition of ADP-induced platelet aggregation,"[1]; cross-over study, 60 mg loading dose, also in subjects who responded poorly to a standard loading dose of Clopidogrel","rapid and highgrade, irreversible inhibition"
CNc1ccc2oc(C[C@H]3O[C@@]4(CC[C@H]3C)O[C@H]([C@H](C)C(=O)c3ccc[nH]3)[C@H](C)C[C@H]4C)nc2c1C(=O)O [calcium ionophore],microparticles (MPs) formed on activation of platelets,[2],many more MPs
CSCCNc1nc(SCCC(F)(F)F)nc2c1ncn2[C@@H]1O[C@H](COP(=O)(O)OP(=O)(O)C(Cl)(Cl)P(=O)(O)O)[C@@H](O)[C@H]1O [cangrelor],half-life,[3],2.6 min
same,inhibition of platelet aggregation,[1]; infusion at 2 and 4 μg/mL/min,near complete inhibition
same,inhibition of P2Y12-dependent platelet function,[4],near complete inhibition
